From patent US20260234211A1, “POLYPEPTIDE HAVING MODIFIED STRUCTURE AND USE THEREOF” (Guangdong Raynovent Biotech Co., Ltd., priority 2023, published 2026)
pEC50: −log10 of the molar value.

What was measured:
GLP-1R = target: T1, GLP-1R (Homo sapiens, UniProt P43220); test: In vitro GLP-1R agonistic activity test (cAMP, HEK293 cell line); type: cell-based; conditions: cAMP, HEK293 cells expressing GLP-1R; read-out: GLP-1 EC50
T1 construct: host or cells: HEK293
Protocol: (§1) The cell lines were constructed by Pharmaron Inc. See details in the table below.
(§2) The test compounds were diluted at a 5-fold dilution factor in 10 points, starting from an initial concentration of 200 nM.
(§3) 1) The cell lines were cultured respectively in complete medium at 37° C. and 5% CO2.
(§4) 1) Eu-cAMP tracer was freeze-thawed and diluted 50 fold with detection buffer; and Ulight-anti-cAMP was freeze-thawed and diluted 150 fold with detection buffer.
(§5) 3) 10 μL of Eu-cAMP tracer was added and then 10 μL of Uligh-anti-cAMP was added into experimental wells respectively.
(§6) 4) The reaction plate was centrifuged at 200 g at room temperature for 30 s and left for stand at 25° C. for 1 h.

GIPR = target: T2, GIPR (Homo sapiens, UniProt P48546); test: In vitro GIPR agonistic activity test (cAMP, CHO cell line); type: cell-based; conditions: CHO cells expressing GIPR, read-out: GIP-1 EC50
T2 construct: host or cells: CHO
T2 sequence (P48546 22-466): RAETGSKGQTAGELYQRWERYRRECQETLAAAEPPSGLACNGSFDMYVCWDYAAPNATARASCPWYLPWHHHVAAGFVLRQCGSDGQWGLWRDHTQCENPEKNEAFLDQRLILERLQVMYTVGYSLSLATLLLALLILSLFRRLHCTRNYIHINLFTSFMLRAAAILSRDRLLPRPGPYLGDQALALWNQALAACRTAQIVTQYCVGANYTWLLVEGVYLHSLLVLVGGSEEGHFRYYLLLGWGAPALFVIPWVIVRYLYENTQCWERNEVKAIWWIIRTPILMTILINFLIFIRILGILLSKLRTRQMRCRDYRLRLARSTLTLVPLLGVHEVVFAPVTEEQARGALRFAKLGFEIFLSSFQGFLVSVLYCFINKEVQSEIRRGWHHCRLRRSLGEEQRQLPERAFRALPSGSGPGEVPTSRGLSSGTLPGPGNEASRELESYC
Protocol: as §1, §2, §3, §4, §5, §6

GCGR = target: T3, GCGR (Homo sapiens, UniProt P47871); test: In vitro GCGR agonistic activity test (cAMP, HEK293 cell line); type: cell-based; conditions: cAMP, HEK293 cells expressing GCGR; read-out: GCG EC50
T3 construct: host or cells: HEK293
T3 sequence (P47871 26-477, species assumed): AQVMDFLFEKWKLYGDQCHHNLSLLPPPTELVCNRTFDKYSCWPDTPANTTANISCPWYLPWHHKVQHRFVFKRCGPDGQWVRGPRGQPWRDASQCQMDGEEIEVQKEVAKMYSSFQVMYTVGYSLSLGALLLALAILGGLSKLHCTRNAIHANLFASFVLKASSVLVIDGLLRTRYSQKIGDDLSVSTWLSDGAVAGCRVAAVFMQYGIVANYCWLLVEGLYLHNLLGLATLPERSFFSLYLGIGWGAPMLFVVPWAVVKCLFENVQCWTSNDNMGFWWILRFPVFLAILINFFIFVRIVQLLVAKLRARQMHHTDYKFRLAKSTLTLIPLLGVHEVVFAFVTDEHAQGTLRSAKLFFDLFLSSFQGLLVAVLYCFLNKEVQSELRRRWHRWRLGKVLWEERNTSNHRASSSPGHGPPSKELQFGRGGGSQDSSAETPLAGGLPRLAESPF
Protocol: as §1, §2, §3
2) After digestion with TrypLE, the cells were re-suspended in experimental buffer respectively, and inoculated in a CulturPlate-384 cell culture plate at a density of 2000 cells/well and at a volume of 15 μL/well.
as §4
2) 5 μL of the test compounds were added respectively into experimental wells of the CulturPlate-384 cell culture plate, which was centrifuged at 200 g for 30 s, and left for stand at 37° C. for 30 min.
as §5, §6
5) Envision 2105 was used to collect data, with excitation light at 340 nm and emission light at 665 nm and 615 nm.

[1] = Pharmacokinetic properties in Cynomolgus macaques; conditions: cynomolgus monkey, in vivo
Method in brief: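 Non-juvenile male cynomolgus macaques were used, three per compound. Plasma was sampled from 1 h to 240 h after administration. Drug levels were quantified by LC-MS/MS and pharmacokinetic parameters calculated from the concentration–time data.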

[2] = Metabolic stability in human kidney S9; type: in vitro ADME; conditions: human, s9
Method in brief: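 Human kidney S9 (1 mg/mL final) with NADPH and UDPGA cofactors, test compound at 1 μM final, incubated at 37°C. Aliquots quenched with acetonitrile at 0.5, 5, 15, 30 and 60 min; LC-MS/MS peak areas used to derive depletion slopes.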

DIO obesity mouse model = test: Pharmacodynamics in DIO obesity mouse model; type: in vivo; conditions: DIO mice
Source text: Experimental purpose: To evaluate the effects of multiple administration of the test substance (compound) on body weight and glucolipid metabolism.
In this experiment, mice were used as test animals, which were induced with a high-fat diet (Research Diets: D12492) from 4-5 weeks old for 8 weeks, and the animals were grouped according to their body weights and fasting blood glucose levels, with the average body weight of the model animals being 47.2±0.3 g, the average body weight of the control animals being 27.9±0.3 g, the average fasting blood glucose of the model animals being 8.8±0.2 mmol/L, and the average fasting blood glucose of the control animals being 6.0±0.2 mmol/L. There were six animals in each group. The animals were administered immediately after grouping and were administered by subcutaneous injection every 3 days for 22 consecutive days. Both the normal control and model groups were given with vehicle (20 mM citrate buffer). Body weight and food intake were measured twice a week. Fasting blood glucose was tested on Days 10 and 20, OGTT test was performed on Day 20, and blood was collected on Day 23 to test the liver function indicators (ALT, AST, ALP) and serum lipid metabolism indicators (TC, TG, HDL, LDL). Liver tissues were taken to calculate organ indexes, and liver lipid metabolism indicators (hepatic TC, TG) were detected. The liver tissues were examined pathologically (HE, Oil Red) to evaluate the effects of the test substances on body weight and glucolipid metabolism in a high-fat diet-induced obesity mouse model.
The experimental data of each group of animals was described as mean±standard error (X±SEM). P<0.05 indicated the statistically significant difference. All statistical analysis was completed using Graphpad 8.0 software.

T1 sequence (P43220 24-463, species assumed): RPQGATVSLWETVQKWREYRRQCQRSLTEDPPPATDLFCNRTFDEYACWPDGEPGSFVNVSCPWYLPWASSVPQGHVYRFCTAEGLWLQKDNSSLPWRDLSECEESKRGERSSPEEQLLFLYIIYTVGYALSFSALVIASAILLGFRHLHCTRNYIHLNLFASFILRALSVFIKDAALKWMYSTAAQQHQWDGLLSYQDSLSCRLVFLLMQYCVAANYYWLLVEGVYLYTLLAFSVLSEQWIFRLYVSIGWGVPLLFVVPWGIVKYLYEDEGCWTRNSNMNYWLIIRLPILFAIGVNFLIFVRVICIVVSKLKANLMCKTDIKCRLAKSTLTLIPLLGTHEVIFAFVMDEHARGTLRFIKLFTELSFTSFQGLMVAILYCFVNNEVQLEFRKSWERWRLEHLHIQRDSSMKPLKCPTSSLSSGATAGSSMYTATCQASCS

CC[C@H](C)[C@H](NC(=O)[C@H](Cc1ccccc1)NC(=O)[C@H](C)NC(=O)C(C)(C)NC(=O)[C@H](CCC(N)=O)NC(=O)[C@H](C)NC(=O)[C@H](CCCCNC(=O)COCCOCCNC(=O)CC[C@H](NC(=O)CCCCCCCCCCCCCCCCCCC(=O)O)C(=O)O)NC(=O)[C@H](CCCCN)NC(=O)[C@H](CC(=O)O)NC(=O)[C@H](CC(C)C)NC(=O)[C@](C)(CC(C)C)NC(=O)[C@@H](NC(=O)[C@H](CO)NC(=O)[C@H](Cc1ccc(O)cc1)NC(=O)[C@H](CC(=O)O)NC(=O)[C@H](CO)NC(=O)[C@@H](NC(=O)[C@H](Cc1ccccc1)NC(=O)[C@@H](NC(=O)CNC(=O)[C@H](CCC(N)=O)NC(=O)C(C)(C)NC(=O)[C@@H](N)Cc1ccc(O)cc1)[C@@H](C)O)[C@@H](C)O)[C@@H](C)CC)C(=O)N[C@@H](CCC(=O)O)C(=O)N[C@@H](Cc1ccc(O)cc1)C(=O)N[C@@H](CC(C)C)C(=O)N[C@@H](CC(C)C)C(=O)N[C@@H](CCC(=O)O)C(=O)NCC(=O)NCC(=O)N1CCC[C@H]1C(=O)N[C@@H](CO)C(=O)N[C@@H](CO)C(=O)NCC(=O)N[C@@H](C)C(=O)N1CCC[C@H]1C(=O)N1CCC[C@H]1C(=O)N1CCC[C@H]1C(=O)N[C@@H](CO)C(N)=O [LY3437943, reference compound]
pEC50 (GLP-1R): 10.85
pEC50 (GIPR): 12.00
pEC50 (GCGR): 10.51
AUC(0-inf) [1]: 2.93 µM·h
AUC(0-t) [1]: 2.7 µM·h
Cmax [1]: 22.1 nM
Tmax [1]: 29.3 h
half-life [1]: 58.8 h
half-life [2]: > 3.08 h
microsomal CLint [2]: < 3.75 µL/min/mg
Liver-body ratio (DIO obesity mouse model; 10 nmol/kg subcutaneous every 3 days): 0.032 ± 0.003 g/g
Change rate of body weight on Day 22 (DIO obesity mouse model; 10 nmol/kg subcutaneous every 3 days, first experiment): −29.19 ± 2.94%
Change rate of body weight on Day 22 (DIO obesity mouse model; 10 nmol/kg, second experiment with similar protocol): −26.32 ± 1.91%
Fasting blood glucose, Day 0 (DIO obesity mouse model; Day 0 (at grouping), 10 nmol/kg group): 8.2 ± 0.3 mmol/L
Fasting blood glucose, Day 10 (DIO obesity mouse model; Day 10, 10 nmol/kg subcutaneous every 3 days): 5.2 ± 0.9 mmol/L
Fasting blood glucose, Day 20 (DIO obesity mouse model; Day 20, 10 nmol/kg subcutaneous every 3 days): 6.2 ± 0.4 mmol/L
